Paper PMC3905653, “Characterization of two transketolases encoded on the chromosome and the plasmid pBM19 of the facultative ribulose monophosphate cycle methylotroph Bacillus methanolicus” (BMC Microbiology, 2014)

Key:
TKT^C = molecular target: T1, TKT^C (Bacillus methanolicus, UniProt I3DZN5); assay: inhibition in coupled assay I; format: biochemical; details: effector tested at 1 and 5 mM, which one gave the value is not told; R5-P and X5-P, pH 7.5, Mn2+
T1 construct: gene tktC; full length, chromosomal gene; pET16b N-terminal His10 tag cut by factor Xa; E. coli BL21(DE3); 73 kDa, homotetramer 280 kDa; primers tktC encode start TTG-TTT-GAT-AAA-ATT-GAC-CAT (MFDKIDH) and C-terminal ALLKQ
T1 sequence (I3DZN5 entry or part of it): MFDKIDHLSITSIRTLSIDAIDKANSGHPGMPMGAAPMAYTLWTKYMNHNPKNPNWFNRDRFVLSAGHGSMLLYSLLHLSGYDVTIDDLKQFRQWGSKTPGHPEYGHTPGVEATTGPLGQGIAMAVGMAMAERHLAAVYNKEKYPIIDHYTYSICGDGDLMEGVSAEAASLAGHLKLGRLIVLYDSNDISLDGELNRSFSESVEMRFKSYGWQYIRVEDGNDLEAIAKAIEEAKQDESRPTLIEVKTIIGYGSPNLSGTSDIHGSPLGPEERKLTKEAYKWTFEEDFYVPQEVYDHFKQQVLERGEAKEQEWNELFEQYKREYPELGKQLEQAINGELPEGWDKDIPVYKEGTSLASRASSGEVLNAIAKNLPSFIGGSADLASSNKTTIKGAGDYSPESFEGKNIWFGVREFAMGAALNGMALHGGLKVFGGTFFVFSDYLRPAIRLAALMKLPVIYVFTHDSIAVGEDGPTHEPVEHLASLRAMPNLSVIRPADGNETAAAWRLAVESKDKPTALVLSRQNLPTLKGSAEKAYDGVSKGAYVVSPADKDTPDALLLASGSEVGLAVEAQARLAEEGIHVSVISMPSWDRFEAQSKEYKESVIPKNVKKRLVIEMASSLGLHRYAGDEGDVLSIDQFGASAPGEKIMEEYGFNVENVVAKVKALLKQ

TKT^P = molecular target: T2, TKT^P (Bacillus methanolicus, UniProt Q6TV44); assay: inhibition in coupled assay I; format: biochemical; details: effector tested at 1 and 5 mM, which one gave the value is not told; R5-P and X5-P, pH 7.5, Mn2+
T2 construct: gene tktP; full length, plasmid pBM19 gene; pET16b N-terminal His10 tag cut by factor Xa; E. coli BL21(DE3); 73 kDa, homotetramer 280 kDa
T2 sequence (Q6TV44 entry or part of it): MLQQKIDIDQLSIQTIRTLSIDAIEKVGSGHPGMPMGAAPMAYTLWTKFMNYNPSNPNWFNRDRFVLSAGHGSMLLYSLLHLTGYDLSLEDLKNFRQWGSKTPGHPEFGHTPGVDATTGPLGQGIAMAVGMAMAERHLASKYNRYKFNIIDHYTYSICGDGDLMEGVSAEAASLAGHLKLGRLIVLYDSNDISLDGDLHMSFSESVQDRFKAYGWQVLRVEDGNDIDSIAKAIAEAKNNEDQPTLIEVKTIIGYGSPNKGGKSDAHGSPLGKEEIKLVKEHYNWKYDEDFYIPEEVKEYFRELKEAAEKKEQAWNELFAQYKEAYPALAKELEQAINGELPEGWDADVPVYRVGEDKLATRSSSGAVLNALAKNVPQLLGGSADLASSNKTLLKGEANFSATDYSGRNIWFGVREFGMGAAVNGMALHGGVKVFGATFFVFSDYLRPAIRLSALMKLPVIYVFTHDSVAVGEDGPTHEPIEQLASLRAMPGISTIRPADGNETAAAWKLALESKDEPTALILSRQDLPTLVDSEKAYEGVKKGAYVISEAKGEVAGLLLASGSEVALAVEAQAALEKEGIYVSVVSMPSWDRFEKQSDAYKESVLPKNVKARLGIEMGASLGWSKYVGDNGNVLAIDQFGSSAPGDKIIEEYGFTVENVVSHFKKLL

Structure (SMILES)	% inhibition (TKT^C) [%]	% inhibition (TKT^P) [%]
Nc1ncnc2c1ncn2[C@@H]1O[C@H](COP(=O)(O)OP(=O)(O)OP(=O)(O)O)[C@@H](O)[C@H]1O [ATP]	75	65
Nc1ncnc2c1ncn2[C@@H]1O[C@H](COP(=O)(O)OP(=O)(O)O)[C@@H](O)[C@H]1O [ADP]	95	65
